Laboratory results as given in patent US9073855B2, “BCL-2 selective apoptosis-inducing agents for the treatment of cancer and immune diseases” (AbbVie Inc., priority 2008, dated 2015).

Columns and labels:
GST-Bcl-XL = GST-Bcl-XL (Homo sapiens, UniProt Q07817); test: TR-FRET binding assay, GST-Bcl-XL with F-Bak peptide probe; conditions: TR-FRET Binding Affinity, GST-Bcl-XL, F-Bak peptide probe
Summary of the method: (§1)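 Ki was derived with Wang's equation for competitive binding of two ligands. The read-out was time-resolved fluorescence after a 3 h room-temperature incubation, using a Tb-labelled antibody donor and the F-Bak peptide acceptor (excitation 340/35 nm). Test compounds entered as DMSO serial dilutions starting at 50 μM, which was the 2× concentration.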

GST-Bcl-2 = GST-Bcl-2 (Homo sapiens, UniProt P10415); test: TR-FRET binding assay, GST-Bcl-2 with F-Bak peptide probe; conditions: TR-FRET Binding Affinity, GST-Bcl-2, F-Bak peptide probe
GST-Bcl-2, sequence (P10415 whole entry): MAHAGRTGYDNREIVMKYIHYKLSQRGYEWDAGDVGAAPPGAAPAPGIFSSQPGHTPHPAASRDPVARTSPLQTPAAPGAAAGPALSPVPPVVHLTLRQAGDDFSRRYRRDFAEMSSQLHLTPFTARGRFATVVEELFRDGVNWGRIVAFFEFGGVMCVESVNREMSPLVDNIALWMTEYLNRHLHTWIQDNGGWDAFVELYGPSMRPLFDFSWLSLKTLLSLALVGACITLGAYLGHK
Summary of the method: as §1

Canine platelets = test: Platelet cell viability assay (platelet-rich plasma, Cell Titer Glo); type: cell-based; conditions: Canis lupus familiaris, 5 h, isolated canine platelets ex vivo, five hours at 37° C.
Procedure: After the incubation, platelets were equilibrated to room temperature for 20 minutes and then an equal volume of Cell Titer Glo reagent (Promega Corporation) was added. Samples were mixed for two minutes and then allowed to equilibrate for an additional 10 minutes at room temperature. The luminescence generated from the samples was quantitated using an LJL Analyst plate reader.
The effect of compounds on platelet survival can be directly evaluated ex vivo by examining the viability of isolated canine platelets in the presence of various concentrations of compound.

FL5.12/Bcl-2 cells = test: FL5.12/Bcl-2 cell viability assay under IL-3 withdrawal (CellTitre Glo); type: cell-based, murine; conditions: Mus musculus, IL-3 withdrawn 48 hrs, then 24 hrs with compound
Summary of the method: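 Cells (1×10^6/ml) are washed, resuspended in medium lacking WEHI-3B conditioned medium as IL-3 source, and held 48 hrs. Compounds are then added at a range of concentrations for 24 hrs, after which CellTitre Glo reports viability.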

GST-Bcl-XL, sequence (Q07817 whole entry): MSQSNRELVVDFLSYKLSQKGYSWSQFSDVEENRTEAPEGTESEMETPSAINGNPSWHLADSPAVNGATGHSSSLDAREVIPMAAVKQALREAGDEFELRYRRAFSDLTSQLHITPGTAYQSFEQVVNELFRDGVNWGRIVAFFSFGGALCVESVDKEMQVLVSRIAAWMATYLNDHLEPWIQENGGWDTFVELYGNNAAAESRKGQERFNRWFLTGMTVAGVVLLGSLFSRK

For `CN(C)CCCOc1ccc(S(=O)(=O)NC(=O)c2ccc(N3CCN(CC4=C(c5ccc(Cl)cc5)CC(C)(C)CC4)CC3)cc2Oc2ccc3[nH]ccc3c2)cc1[N+](=O)[O-]` [Example 100, 4-(4-{[2-(4-chlorophenyl)-4,4-dimethylcyclohex-1-en-1-yl]methyl}piperazin-1-yl)-N-({4-[3-(dimethylamino)propoxy]-3-nitrophenyl}sulfonyl)-2-(1H-indol-5-yloxy)benzamide], the Ki (GST-Bcl-XL) was 8.29 nM, the Ki (GST-Bcl-2) was 0.116 nM and the EC50 (Canine platelets) was 31200 nM. The EC50 (FL5.12/Bcl-2 cells) was 15 nM.

Compound `CN1CCC(Nc2ccc(S(=O)(=O)NC(=O)c3ccc(N4CCN(CC5=C(c6ccc(Cl)cc6)CCCCC5)CC4)cc3Oc3cccc4[nH]ccc34)cc2[N+](=O)[O-])CC1` [Example 147, 4-(4-{[2-(4-chlorophenyl)cyclohept-1-en-1-yl]methyl}piperazin-1-yl)-2-(1H-indol-4-yloxy)-N-({4-[(1-methylpiperidin-4-yl)amino]-3-nitrophenyl}sulfonyl)benzamide] has a Ki (GST-Bcl-XL) of over 660 nM, a Ki (GST-Bcl-2) of 0.514 nM and an EC50 (Canine platelets) of 17600 nM. The EC50 (FL5.12/Bcl-2 cells) was 9 nM.

For `CN1CCN(CCCNc2ccc(S(=O)(=O)NC(=O)c3ccc(N4CCN(Cc5ccccc5-c5ccc(Cl)cc5)CC4)cc3Oc3ccccc3)cc2[N+](=O)[O-])CC1` [Example 86, 4-{4-[(4′-chloro-1,1′-biphenyl-2-yl)methyl]piperazin-1-yl}-N-[(4-{[3-(4-methylpiperazin-1-yl)propyl]amino}-3-nitrophenyl)sulfonyl]-2-phenoxybenzamide], the Ki (GST-Bcl-XL) was 10.5 nM, the Ki (GST-Bcl-2) was 0.212 nM and the EC50 (Canine platelets) was 36300 nM. It also gave an EC50 (FL5.12/Bcl-2 cells) of 74 nM.

`CN1CCC(Nc2ccc(S(=O)(=O)NC(=O)c3ccc(N4CCN(CC5=C(c6ccc(Cl)cc6)CCCC5)CC4)cc3Oc3cccc4[nH]ccc34)cc2[N+](=O)[O-])CC1` [Example 149, 4-(4-{[2-(4-chlorophenyl)cyclohex-1-en-1-yl]methyl}piperazin-1-yl)-2-(1H-indol-4-yloxy)-N-({4-[(1-methylpiperidin-4-yl)amino]-3-nitrophenyl}sulfonyl)benzamide] was tested, and the Ki (GST-Bcl-XL) was over 660 nM, the Ki (GST-Bcl-2) was 0.265 nM and the EC50 (Canine platelets) was 16700 nM. The EC50 (FL5.12/Bcl-2 cells) was 13 nM.

`CN(C)CCOc1ccc(-c2ccc(Cl)cc2)c(CN2CCN(c3ccc(C(=O)NS(=O)(=O)c4ccc(NCC5CCOCC5)c(S(=O)(=O)C(F)(F)F)c4)c(Oc4ccccc4)c3)CC2)c1` [Example 120, 4-[4-({4′-chloro-4-[2-(dimethylamino)ethoxy]-1,1′-biphenyl-2-yl}methyl)piperazin-1-yl]-2-phenoxy-N-({4-[(tetrahydro-2H-pyran-4-ylmethyl)amino]-3-[(trifluoromethyl)sulfonyl]phenyl}sulfonyl)benzamide] gave a Ki (GST-Bcl-XL) of 99.6 nM, a Ki (GST-Bcl-2) of 0.443 nM and an EC50 (Canine platelets) of over 50000 nM. It also gave an EC50 (FL5.12/Bcl-2 cells) of 319 nM.

`O=C(NS(=O)(=O)c1ccc(NCCCN2CCCC2)c([N+](=O)[O-])c1)c1ccc(N2CCN(CC3=C(c4ccc(Cl)cc4)CCCCCC3)CC2)cc1Oc1cccc2[nH]ccc12` [Example 142, 4-(4-{[2-(4-chlorophenyl)cyclooct-1-en-1-yl]methyl}piperazin-1-yl)-2-(1H-indol-4-yloxy)-N-({3-nitro-4-[(3-pyrrolidin-1-ylpropyl)amino]phenyl}sulfonyl)benzamide] showed a Ki (GST-Bcl-XL) of 102 nM, a Ki (GST-Bcl-2) of 3.66 nM and an EC50 (Canine platelets) of over 50000 nM. The EC50 (FL5.12/Bcl-2 cells) was 270 nM.

`O=C(NS(=O)(=O)c1ccc(NCC2CCOCC2)c([N+](=O)[O-])c1)c1ccc(N2CCN(Cc3cc(OCCN4CCOCC4)ccc3-c3ccc(Cl)cc3)CC2)cc1Oc1cccc2[nH]ccc12` [Example 130, 4-(4-{[4′-chloro-4-(2-morpholin-4-ylethoxy)-1,1′-biphenyl-2-yl]methyl}piperazin-1-yl)-2-(1H-indol-4-yloxy)-N-({3-nitro-4-[(tetrahydro-2H-pyran-4-ylmethyl)amino]phenyl}sulfonyl)benzamide] was tested, and the Ki (GST-Bcl-XL) was over 660 nM, the Ki (GST-Bcl-2) was 0.14 nM and the EC50 (Canine platelets) was over 50000 nM. It also gave an EC50 (FL5.12/Bcl-2 cells) of 197 nM.

Work on `CN(C)CCOc1cccc(-c2ccc(Cl)cc2)c1CN1CCN(c2ccc(C(=O)NS(=O)(=O)c3ccc(NCC4CCOCC4)c([N+](=O)[O-])c3)c(Oc3ccccc3)c2)CC1` [Example 122, 4-[4-({4′-chloro-3-[2-(dimethylamino)ethoxy]-1,1′-biphenyl-2-yl}methyl)piperazin-1-yl]-N-({3-nitro-4-[(tetrahydro-2H-pyran-4-ylmethyl)amino]phenyl}sulfonyl)-2-phenoxybenzamide] yielded a Ki (GST-Bcl-XL) of 12.1 nM, a Ki (GST-Bcl-2) of 0.058 nM and an EC50 (Canine platelets) of over 50000 nM. The EC50 (FL5.12/Bcl-2 cells) was 40 nM.

Work on `CN1CCC(Nc2ccc(S(=O)(=O)NC(=O)c3ccc(N4CCN(CC5=C(c6ccc(Cl)cc6)CC(C)(C)OC5)CC4)cc3Oc3ccc4[nH]ccc4c3)cc2[N+](=O)[O-])CC1` [Example 150, 4-(4-{[4-(4-chlorophenyl)-6,6-dimethyl-5,6-dihydro-2H-pyran-3-yl]methyl}piperazin-1-yl)-2-(1H-indol-5-yloxy)-N-({4-[(1-methylpiperidin-4-yl)amino]-3-nitrophenyl}sulfonyl)benzamide] yielded a Ki (GST-Bcl-XL) of 9.34 nM, a Ki (GST-Bcl-2) of 0.014 nM and an EC50 (Canine platelets) of 2900 nM. For the same compound, the EC50 (FL5.12/Bcl-2 cells) was 6 nM.

`CN(C)CCCOc1ccc(S(=O)(=O)NC(=O)c2ccc(N3CCN(Cc4ccccc4-c4ccc(Cl)cc4)CC3)cc2Oc2ccccc2)cc1[N+](=O)[O-]` [Example 94, 4-{4-[(4′-chloro-1,1′-biphenyl-2-yl)methyl]piperazin-1-yl}-N-({4-[3-(dimethylamino)propoxy]-3-nitrophenyl}sulfonyl)-2-phenoxybenzamide] was tested, and the Ki (GST-Bcl-XL) was 2.32 nM, the Ki (GST-Bcl-2) was 0.07 nM and the EC50 (Canine platelets) was 23800 nM. For the same compound, the EC50 (FL5.12/Bcl-2 cells) was 40 nM.

`CN1CCC(Nc2ccc(S(=O)(=O)NC(=O)c3ccc(N4CCN(CC5=C(c6ccc(Cl)cc6)CCCC5)CC4)cc3Oc3ccc4[nH]ccc4c3)cc2[N+](=O)[O-])CC1` [Example 75, 4-(4-{[2-(4-chlorophenyl)cyclohex-1-en-1-yl]methyl}piperazin-1-yl)-2-(1H-indol-5-yloxy)-N-({4-[(1-methylpiperidin-4-yl)amino]-3-nitrophenyl}sulfonyl)benzamide] was tested, and the Ki (GST-Bcl-XL) was 107 nM, the Ki (GST-Bcl-2) was 0.125 nM and the EC50 (Canine platelets) was 17700 nM. It also gave an EC50 (FL5.12/Bcl-2 cells) of 22 nM.

For `CC1(C)CCC(CN2CCN(c3ccc(C(=O)NS(=O)(=O)c4ccc(NCCCN5CCCC5)c([N+](=O)[O-])c4)c(Oc4cccc5[nH]ccc45)c3)CC2)=C(c2cccc(F)c2)C1` [Example 72, 4-(4-{[2-(3-fluorophenyl)-4,4-dimethylcyclohex-1-en-1-yl]methyl}piperazin-1-yl)-2-(1H-indol-4-yloxy)-N-({3-nitro-4-[(3-pyrrolidin-1-ylpropyl)amino]phenyl}sulfonyl)benzamide], the Ki (GST-Bcl-XL) was 52.4 nM, the Ki (GST-Bcl-2) was 3.02 nM and the EC50 (Canine platelets) was over 50000 nM. The EC50 (FL5.12/Bcl-2 cells) was 154 nM.

With `CN(C)CCOc1ccc(-c2ccc(Cl)cc2)c(CN2CCN(c3ccc(C(=O)NS(=O)(=O)c4ccc(NC5CCN(CC(F)(F)F)CC5)c([N+](=O)[O-])c4)c(Oc4ccccc4)c3)CC2)c1` [Example 137, 4-[4-({4′-chloro-4-[2-(dimethylamino)ethoxy]-1,1′-biphenyl-2-yl}methyl)piperazin-1-yl]-N-[(3-nitro-4-{[1-(2,2,2-trifluoroethyl)piperidin-4-yl]amino}phenyl)sulfonyl]-2-phenoxybenzamide] the Ki (GST-Bcl-XL) was 16 nM, the Ki (GST-Bcl-2) was 0.305 nM and the EC50 (Canine platelets) was over 50000 nM. The EC50 (FL5.12/Bcl-2 cells) was 281 nM.

`CN(C)CCOc1cccc(-c2ccc(Cl)cc2)c1CN1CCN(c2ccc(C(=O)NS(=O)(=O)c3ccc(NCC4CCOCC4)c([N+](=O)[O-])c3)c(Oc3cccc4[nH]ccc34)c2)CC1` [Example 128, 4-[4-({4′-chloro-3-[2-(dimethylamino)ethoxy]-1,1′-biphenyl-2-yl}methyl)piperazin-1-yl]-2-(1H-indol-4-yloxy)-N-({3-nitro-4-[(tetrahydro-2H-pyran-4-ylmethyl)amino]phenyl}sulfonyl)benzamide] was tested, and the Ki (GST-Bcl-XL) was 363 nM, the Ki (GST-Bcl-2) was 0.051 nM and the EC50 (Canine platelets) was over 50000 nM. The EC50 (FL5.12/Bcl-2 cells) was 25 nM.

`CN(C)CCOc1ccc(-c2ccc(Cl)cc2)c(CN2CCN(c3ccc(C(=O)NS(=O)(=O)c4ccc(NCC5CCOCC5)c([N+](=O)[O-])c4)c(Oc4cccc5[nH]ccc45)c3)CC2)c1` [Example 125, 4-[4-({4′-chloro-4-[2-(dimethylamino)ethoxy]-1,1′-biphenyl-2-yl}methyl)piperazin-1-yl]-2-(1H-indol-4-yloxy)-N-({3-nitro-4-[(tetrahydro-2H-pyran-4-ylmethyl)amino]phenyl}sulfonyl)benzamide] gave a Ki (GST-Bcl-XL) of 11.6 nM, a Ki (GST-Bcl-2) of 0.003 nM and an EC50 (Canine platelets) of 44800 nM. For the same compound, the EC50 (FL5.12/Bcl-2 cells) was 10 nM.

In the case of `CC1(C)CCC(c2ccc(Cl)cc2)=C(CN2CCN(c3ccc(C(=O)NS(=O)(=O)c4ccc(NCCCN5CCOCC5)c([N+](=O)[O-])c4)c(Oc4cccc5[nH]ccc45)c3)CC2)C1` [Example 54, 4-(4-{[2-(4-chlorophenyl)-5,5-dimethylcyclohex-1-en-1-yl]methyl}piperazin-1-yl)-2-(1H-indol-4-yloxy)-N-({4-[(3-morpholin-4-ylpropyl)amino]-3-nitrophenyl}sulfonyl)benzamide], the Ki (GST-Bcl-XL) is reported as 82 nM, the Ki (GST-Bcl-2) is reported as 0.757 nM and the EC50 (Canine platelets) is reported as over 50000 nM. For the same compound, the EC50 (FL5.12/Bcl-2 cells) was 64 nM.
